Each structure is given as a SMILES string. Read-outs that look alike come from different tables or passages of the source.

Common to all, as to assay type: biochemical
One experiment has as its target JAK1 (Homo sapiens (Human), UniProt P23458). In words: Enzyme assay (Assay Example^a 1), JAK1. To be noted: ATP 100 μM.
The target of the next experiment is JAK2 (Homo sapiens (Human), UniProt O60674). Nature of the experiment: Enzyme assay (Assay Example^a 1), JAK2.
A further experiment deals with Tyk2 (Homo sapiens (Human), UniProt P29597). In words: Enzyme assay (Assay Example^a 1), Tyk2. Conditions: ATP 100 μM.
Tyk2, sequence (P29597 whole entry): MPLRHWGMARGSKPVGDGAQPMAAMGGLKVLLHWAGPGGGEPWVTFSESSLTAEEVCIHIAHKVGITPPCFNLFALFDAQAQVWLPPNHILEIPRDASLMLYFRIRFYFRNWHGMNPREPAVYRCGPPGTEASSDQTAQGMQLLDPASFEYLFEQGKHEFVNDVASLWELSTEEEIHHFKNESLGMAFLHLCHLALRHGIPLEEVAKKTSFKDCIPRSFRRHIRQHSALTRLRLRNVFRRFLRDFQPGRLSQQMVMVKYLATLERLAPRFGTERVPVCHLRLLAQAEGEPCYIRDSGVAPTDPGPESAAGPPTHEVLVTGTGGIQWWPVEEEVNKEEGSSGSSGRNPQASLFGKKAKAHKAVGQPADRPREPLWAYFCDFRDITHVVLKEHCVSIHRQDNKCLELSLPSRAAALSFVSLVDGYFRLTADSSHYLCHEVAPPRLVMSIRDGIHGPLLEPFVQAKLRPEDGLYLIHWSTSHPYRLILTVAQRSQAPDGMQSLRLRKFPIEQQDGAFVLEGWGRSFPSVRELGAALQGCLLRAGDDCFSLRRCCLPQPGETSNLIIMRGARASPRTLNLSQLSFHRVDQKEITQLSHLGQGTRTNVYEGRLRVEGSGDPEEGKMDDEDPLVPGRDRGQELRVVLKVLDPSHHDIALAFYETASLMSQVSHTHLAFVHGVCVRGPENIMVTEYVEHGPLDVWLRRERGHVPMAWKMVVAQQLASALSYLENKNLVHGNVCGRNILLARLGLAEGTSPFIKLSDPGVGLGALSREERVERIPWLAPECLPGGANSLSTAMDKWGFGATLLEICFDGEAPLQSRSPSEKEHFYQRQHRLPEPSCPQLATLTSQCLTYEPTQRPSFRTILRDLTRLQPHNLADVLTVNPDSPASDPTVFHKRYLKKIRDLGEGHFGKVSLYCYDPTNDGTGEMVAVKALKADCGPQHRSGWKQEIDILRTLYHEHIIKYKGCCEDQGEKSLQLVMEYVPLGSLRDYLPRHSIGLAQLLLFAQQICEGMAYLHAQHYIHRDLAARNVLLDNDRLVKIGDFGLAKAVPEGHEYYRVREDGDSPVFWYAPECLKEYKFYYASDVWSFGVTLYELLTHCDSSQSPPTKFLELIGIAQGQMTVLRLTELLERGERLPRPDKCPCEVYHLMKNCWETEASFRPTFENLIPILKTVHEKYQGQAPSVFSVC
A further experiment concerns the target JAK3 (Homo sapiens (Human), UniProt P52333). Nature of the experiment: Enzyme assay (Assay Example^a 1), JAK3. To be noted: ATP 100 μM.

JAK3, sequence (P52333 whole entry): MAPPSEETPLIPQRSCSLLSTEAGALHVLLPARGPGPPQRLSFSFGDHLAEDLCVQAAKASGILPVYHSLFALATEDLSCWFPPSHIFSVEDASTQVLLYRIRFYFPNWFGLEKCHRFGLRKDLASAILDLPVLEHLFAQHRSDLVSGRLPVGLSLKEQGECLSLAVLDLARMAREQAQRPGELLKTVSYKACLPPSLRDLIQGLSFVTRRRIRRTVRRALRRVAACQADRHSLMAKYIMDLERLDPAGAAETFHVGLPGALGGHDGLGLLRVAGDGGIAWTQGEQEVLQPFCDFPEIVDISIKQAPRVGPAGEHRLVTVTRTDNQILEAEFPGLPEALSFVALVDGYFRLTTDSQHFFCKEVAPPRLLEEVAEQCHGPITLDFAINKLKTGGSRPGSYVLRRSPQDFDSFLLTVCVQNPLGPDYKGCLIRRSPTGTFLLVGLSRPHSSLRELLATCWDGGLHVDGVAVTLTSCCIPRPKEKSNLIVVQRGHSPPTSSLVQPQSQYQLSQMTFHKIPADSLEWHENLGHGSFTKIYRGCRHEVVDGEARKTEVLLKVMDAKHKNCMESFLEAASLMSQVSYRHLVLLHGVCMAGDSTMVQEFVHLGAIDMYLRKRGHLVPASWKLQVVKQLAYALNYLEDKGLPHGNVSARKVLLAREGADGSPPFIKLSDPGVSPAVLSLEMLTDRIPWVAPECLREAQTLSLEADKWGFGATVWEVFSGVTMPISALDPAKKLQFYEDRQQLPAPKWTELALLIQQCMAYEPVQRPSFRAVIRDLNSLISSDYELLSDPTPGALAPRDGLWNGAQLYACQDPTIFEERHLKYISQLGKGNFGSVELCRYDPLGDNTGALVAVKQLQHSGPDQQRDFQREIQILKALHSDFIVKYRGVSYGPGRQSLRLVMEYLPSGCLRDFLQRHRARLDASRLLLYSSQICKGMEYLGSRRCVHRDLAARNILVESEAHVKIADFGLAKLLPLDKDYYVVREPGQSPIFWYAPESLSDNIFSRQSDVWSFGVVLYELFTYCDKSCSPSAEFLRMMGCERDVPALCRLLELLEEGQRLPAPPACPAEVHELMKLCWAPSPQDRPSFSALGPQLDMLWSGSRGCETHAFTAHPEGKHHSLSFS

`CC(C)(C)OC(=O)N[C@@H]1CCN(C[C@H]2CC[C@H](c3nnn4cnc5[nH]ccc5c34)CC2)C1` [compound 299, tert-butyl ((R)-1-{[trans-4-(7H-pyrrolo[3,2-e][1,2,3]triazolo[1,5-c]pyrimidin-1-yl)cyclohexyl]methyl}pyrrolidin-3-yl)carbamate]: the half-maximal inhibitory concentration (IC50) against JAK1 was 0.016 µM; on JAK2 (ATP 100 μM), 0.17 µM; against Tyk2 it was greater than 1 µM; against JAK3 it was greater than 1 µM.
Regarding `N#CCCN(C[C@H]1CC[C@H](c2nnn3cnc4[nH]ccc4c23)CC1)c1ccccc1` [compound 300, 3-({[trans-4-(7H-pyrrolo[3,2-e][1,2,3]triazolo[1,5-c]pyrimidin-1-yl)cyclohexyl]methyl}(phenyl)amino)propanenitrile], the IC50 at JAK1 was 0.025 µM; against JAK2 (ATP 100 μM) it was 0.059 µM; on Tyk2 it was greater than 1 µM; on JAK3 it was 0.75 µM.
On the same counts, the results for `N#C[C@@H]1CCN(C[C@H]2CC[C@H](c3nnn4cnc5[nH]ccc5c34)CC2)C1` [compound 301, (R)-1-{[trans-4-(7H-pyrrolo[3,2-e][1,2,3]triazolo[1,5-c]pyrimidin-1-yl)cyclohexyl]methyl}pyrrolidine-3-carbonitrile] are 0.024 µM, 0.072 µM, greater than 1 µM and 0.96 µM.
On the same counts, the results for `CN(CCC#N)C[C@H]1CC[C@H](c2nnn3cnc4[nH]ccc4c23)CC1` [compound 302, 3-({[trans-4-(7H-pyrrolo[3,2-e][1,2,3]triazolo[1,5-c]pyrimidin-1-yl)cyclohexyl]methyl}(methyl)amino)propanenitrile] are 0.012 µM, 0.029 µM, 0.36 µM and 0.49 µM.
On the same counts, the results for `OC12CC3CC(C1)C(NC[C@H]1CC[C@H](c4nnn5cnc6[nH]ccc6c45)CC1)C(C3)C2` (stereo partly drawn) [compound 303, (1S,3R,4r,5S,7S)-4-({[trans-4-(7H-pyrrolo[3,2-e][1,2,3]triazolo[1,5-c]pyrimidin-1-yl)cyclohexyl]methyl}amino)adamantan-1-ol] are 0.057 µM, 0.35 µM, greater than 1 µM and greater than 1 µM.
Regarding `OC12CC3CC(C1)C(NC[C@H]1CC[C@H](c4nnn5cnc6[nH]ccc6c45)CC1)C(C3)C2` (stereo partly drawn) [compound 304, (1S,3R,4s,5S,7S)-4-({[trans-4-(7H-pyrrolo[3,2-e][1,2,3]triazolo[1,5-c]pyrimidin-1-yl)cyclohexyl]methyl}amino)adamantan-1-ol], the IC50 against JAK1 was 0.049 µM; against JAK2 (ATP 100 μM) it was 0.27 µM; on Tyk2, greater than 1 µM; against JAK3 it was greater than 1 µM.
For the compound `O[C@H]1CC[C@H](NC[C@H]2CC[C@H](c3nnn4cnc5[nH]ccc5c34)CC2)CC1` [compound 305, trans-4-({[trans-4-(7H-pyrrolo[3,2-e][1,2,3]triazolo[1,5-c]pyrimidin-1-yl)cyclohexyl]methyl}amino)cyclohexanol], the IC50 against JAK1 was 0.046 µM; at JAK2 (ATP 100 μM) it was 0.29 µM; at Tyk2 it was greater than 1 µM; at JAK3 it was greater than 1 µM.
Regarding `OCCN(C[C@H]1CC[C@H](c2nnn3cnc4[nH]ccc4c23)CC1)C1CCCCC1` [compound 306, 2-({[trans-4-(7H-pyrrolo[3,2-e][1,2,3]triazolo[1,5-c]pyrimidin-1-yl)cyclohexyl]methyl}(cyclohexyl)amino)ethanol], the IC50 on JAK1 is 0.015 µM; on JAK2 (ATP 100 μM), 0.054 µM; on Tyk2, 0.62 µM; on JAK3 it was greater than 1 µM.
For `CC(C)(C)OC(=O)N[C@H]1CCN(C[C@H]2CC[C@H](c3nnn4cnc5[nH]ccc5c34)CC2)C1` [compound 307, tert-butyl ((S)-1-{[trans-4-(7H-pyrrolo[3,2-e][1,2,3]triazolo[1,5-c]pyrimidin-1-yl)cyclohexyl]methyl}pyrrolidin-3-yl)carbamate], the IC50 on JAK1 was 0.0066 µM; on JAK2 (ATP 100 μM), 0.26 µM; on Tyk2, greater than 1 µM; at JAK3, greater than 1 µM.
Take `Clc1ccc(C2(NC[C@H]3CC[C@H](c4nnn5cnc6[nH]ccc6c45)CC3)COC2)cc1` [compound 308, N-{[trans-4-(7H-pyrrolo[3,2-e][1,2,3]triazolo[1,5-c]pyrimidin-1-yl)cyclohexyl]methyl}-3-(4-chlorophenyl)oxetan-3-amine]: the IC50 against JAK1 turned out to be 0.0024 µM; at JAK2 (ATP 100 μM), 0.012 µM; at Tyk2, 0.79 µM; against JAK3 it was 0.24 µM.
Take `OC1(c2ccc(Cl)c(C(F)(F)F)c2)CCN(C[C@H]2CC[C@H](c3nnn4cnc5[nH]ccc5c34)CC2)CC1` [compound 309, 1-{[trans-4-(7H-pyrrolo[3,2-e][1,2,3]triazolo[1,5-c]pyrimidin-1-yl)cyclohexyl]methyl}-4-[4-chloro-3-(trifluoromethyl)phenyl]piperidin-4-ol]: the IC50 against JAK1 is 0.0076 µM; against JAK2, 0.097 µM; on Tyk2 it was 0.31 µM; against JAK3 it was greater than 1 µM.
`N#CC1(c2ccccc2)CCN(C[C@H]2CC[C@H](c3nnn4cnc5[nH]ccc5c34)CC2)CC1` [compound 310, 1-{[trans-4-(7H-pyrrolo[3,2-e][1,2,3]triazolo[1,5-c]pyrimidin-1-yl)cyclohexyl]methyl}-4-phenylpiperidine-4-carbonitrile]: the half-maximal inhibitory concentration (IC50) is 0.071 µM at JAK1, 0.38 µM on JAK2 (ATP 100 μM), greater than 1 µM on Tyk2 and greater than 1 µM at JAK3.
On to `CC(C)(O)C1CCN(C[C@H]2CC[C@H](c3nnn4cnc5[nH]ccc5c34)CC2)CC1` [compound 311, 2-(1-{[trans-4-(7H-pyrrolo[3,2-e][1,2,3]triazolo[1,5-c]pyrimidin-1-yl)cyclohexyl]methyl}piperidin-4-yl)propan-2-ol], for which the IC50 on JAK1 is 0.025 µM; against JAK2 (ATP 100 μM) it was 0.16 µM; on Tyk2 it was 0.94 µM; on JAK3, greater than 1 µM.
On the same counts, the results for `N#CCCN1CCN(C[C@H]2CC[C@H](c3nnn4cnc5[nH]ccc5c34)CC2)CC1` [compound 314, 3-(4-{[trans-4-(7H-pyrrolo[3,2-e][1,2,3]triazolo[1,5-c]pyrimidin-1-yl)cyclohexyl]methyl}piperazin-1-yl)propanenitrile] are 0.008 µM, 0.19 µM, 0.75 µM and greater than 1 µM.
For `OCCN1CCN(C[C@H]2CC[C@H](c3nnn4cnc5[nH]ccc5c34)CC2)CC1` [compound 315, 2-(4-{[trans-4-(7H-pyrrolo[3,2-e][1,2,3]triazolo[1,5-c]pyrimidin-1-yl)cyclohexyl]methyl}piperazin-1-yl)ethanol] the same measures were 0.01 µM, 0.2 µM, 0.53 µM and greater than 1 µM.
On to `c1cc2c(ncn3nnc([C@H]4CC[C@H](CNC56CC(C5)C6)CC4)c23)[nH]1` [compound 316, N-{[trans-4-(7H-pyrrolo[3,2-e][1,2,3]triazolo[1,5-c]pyrimidin-1-yl)cyclohexyl]methyl}bicyclo[1.1.1]pentan-1-amine], for which the IC50 against JAK1 is 0.013 µM; against JAK2 (ATP 100 μM) it was 0.099 µM; on Tyk2 it was 0.59 µM; at JAK3 it was greater than 1 µM.
For `FC(F)(F)C(NC[C@H]1CC[C@H](c2nnn3cnc4[nH]ccc4c23)CC1)C(F)(F)F` [compound 317, N-{[trans-4-(7H-pyrrolo[3,2-e][1,2,3]triazolo[1,5-c]pyrimidin-1-yl)cyclohexyl]methyl}-1,1,1,3,3,3-hexafluoropropan-2-amine] the same measures were 0.0013 µM, 0.016 µM, 0.62 µM and 0.47 µM.
On the same counts, the results for `CC(=O)N[C@@H]1CCN(C[C@H]2CC[C@H](c3nnn4cnc5[nH]ccc5c34)CC2)C1` [compound 318, N-((R)-1-{[trans-4-(7H-pyrrolo[3,2-e][1,2,3]triazolo[1,5-c]pyrimidin-1-yl)cyclohexyl]methyl}pyrrolidin-3-yl)acetamide] are 0.0048 µM, 0.057 µM, 0.61 µM and greater than 1 µM.
For `CC(=O)N[C@H]1CCN(C[C@H]2CC[C@H](c3nnn4cnc5[nH]ccc5c34)CC2)C1` [compound 319, N-((S)-1-{[trans-4-(7H-pyrrolo[3,2-e][1,2,3]triazolo[1,5-c]pyrimidin-1-yl)cyclohexyl]methyl}pyrrolidin-3-yl)acetamide] the same measures were 0.027 µM, 0.23 µM, greater than 1 µM and greater than 1 µM.
For the compound `O=C(N[C@@H]1CCN(C[C@H]2CC[C@H](c3nnn4cnc5[nH]ccc5c34)CC2)C1)C(F)(F)F` [compound 320, N-((R)-1-{[trans-4-(7H-pyrrolo[3,2-e][1,2,3]triazolo[1,5-c]pyrimidin-1-yl)cyclohexyl]methyl}pyrrolidin-3-yl)-2,2,2-trifluoroacetamide], the IC50 at JAK1 is 0.0076 µM; on JAK2 (ATP 100 μM) it was 0.057 µM; against Tyk2, 0.86 µM; against JAK3 it was greater than 1 µM.
`O=C(N[C@H]1CCN(C[C@H]2CC[C@H](c3nnn4cnc5[nH]ccc5c34)CC2)C1)C(F)(F)F` [compound 321, N-((S)-1-{[trans-4-(7H-pyrrolo[3,2-e][1,2,3]triazolo[1,5-c]pyrimidin-1-yl)cyclohexyl]methyl}pyrrolidin-3-yl)-2,2,2-trifluoroacetamide]: the IC50 against JAK1 is 0.024 µM; at JAK2 (ATP 100 μM) it was 0.21 µM; at Tyk2, greater than 1 µM; against JAK3, greater than 1 µM.
For `Fc1ccc(C2(NC[C@H]3CC[C@H](c4nnn5cnc6[nH]ccc6c45)CC3)CCC2)cc1` [compound 324, N-{[trans-4-(7H-pyrrolo[3,2-e][1,2,3]triazolo[1,5-c]pyrimidin-1-yl)cyclohexyl]methyl}-1-(4-fluorophenyl)cyclobutanamine], the half-inhibitory concentration (IC50) against JAK1 worked out at 0.0034 µM; against JAK2 (ATP 100 μM), 0.034 µM; on Tyk2, 0.75 µM; at JAK3, 0.66 µM.

The record behind these values is patent US9216999B2, “Substituted pyrrolo[2,3-h][1,6]naphthyridines and compositions thereof as JAK inhibitors” (priority 2011, dated 2015).
